From the supplement of paper PMC10949913

How the values were obtained:
Conditions in all cases: 48 h
CU-ACC2 [1] = assay: AC50 viability; higher = less potent
Summary of the method: (§1)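 Concentration-response curves were fitted to obtain AC50 and area under the curve, keeping inhibitory or non-responding curve classes only. Data came from CellTiter-Glo luminescence, normalised per plate to vehicle and empty-well controls, in three adrenocortical carcinoma cell lines. These were treated in 1,536-well plates with library compounds at 11 concentrations and read after 48 h.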

CU-ACC2 [2] = assay: area under concentration-response curve (viability) (AUC (a.u.)); higher = less active
Summary of the method: as §1

NCI-H295R = assay: as above
Summary of the method: as §1

CU-ACC1 = assay: as above
Summary of the method: as §1

| SMILES | AC50 viability (CU-ACC2 [1]) [µM] | area under concentration-response curve (CU-ACC2 [2]) | area under concentration-response curve (NCI-H295R) | area under concentration-response curve (CU-ACC1) |
| --- | --- | --- | --- | --- |
| C[C@]1(O)CC(C1)C2=NC(=C3[N]2C=CN=C3N)C4=CC5=C(C=C4)C=CC(=N5)C6=CC=CC=C6 (stereo unspecified) | 18.6 | 411 | 373 |  |
| COC(=O)Nc1nc2cc(Sc3ccccc3)ccc2[nH]1 | 5.25 | 393 | 431 | 368 |
| N#Cc1ccnc(Nc2cc(C3CCN(C4COC4)CC3)cc(N3CCC(F)(F)C3)n2)c1 | 1.66 | 467 | 471 | 458 |
| CC(/C=C/C(=O)NO)=C\[C@@H](C)C(=O)c1ccc(N(C)C)cc1 | 1.05 | 463 | 487 | 417 |
| O=C(NCCCNc1nc(Nc2cccc(CN3CCOCC3)c2)ncc1C1CC1)C1CCC1 | 33.2 | 452 | 220 |  |
| CCOC(=O)c1ccnc(CNCC(=O)N(CC)CCN(C)C)c1 | 0.661 | 339 |  | 338 |
| CC#CC(=O)N1CC[C@@H](n2c(=O)n(-c3ccc(Oc4ccccc4)cc3)c3c(N)ncnc32)C1 | 13.2 | 428 |  | 425 |
| CC(C)c1cccc(C(C)C)c1O | 14.8 | 400 | 415 | 362 |
| CCC1=C2CN3C(=O)\C4=C(/C=C3/C2=NC5=CC=C(O)C=C15)[C@@](O)(CC)C(=O)OC4 | 0.468 | 447 | 524 | 401 |
| CC(C)OC(=O)[C@H](C)N[P@](=O)(OC[C@H]1O[C@@H](N2\C=C/C(=O)NC2=O)[C@](C)(F)[C@@H]1O)OC3=CC=CC=C3 | 5.9 | 414 | 386 | 388 |
| CO[C@@H]1C(N(C)C(=O)c2ccccc2)C[C@H]2O[C@]1(C)n1c3ccccc3c3c4c(c5c6ccccc6n2c5c31)C(=O)NC4=O (stereo partly specified) | 0.186 | 286 |  | 362 |
| C=CC(=O)N1CCC[C@H](n2c(=O)n(-c3ccc(Oc4ccccc4)cc3)c3c(N)ncnc32)C1 | 20.9 | 410 | 410 | 352 |
| NC(=O)c1ccc2[nH]ccc2c1 | 0.59 | 360 | 395 | 345 |
| C=C(C)[C@@H]1CCC(C)=C[C@H]1c1c(O)cc(CCCCC)cc1O | 18.6 | 489 |  | 467 |
| CC(C)Oc1cc(Nc2nc(N[C@@H](C)c3ccc(F)cn3)ncc2Cl)n[nH]1 | 1.32 | 394 | 353 | 325 |
| COc1cc(OC)c(NC(=O)Nc2cc(C)on2)cc1Cl | 23.5 | 484 | 432 | 408 |
| O=C(CCCCCCNC(=O)c1cnc(N(c2ccccc2)c2ccccc2Cl)nc1)NO | 11.8 | 502 |  | 464 |
| CN(C1=CC=CC=C1)C(=O)C/2=C(O)/C3=C(C=CC=C3)N(C)C2=O | 37.2 | 399 | 317 | 344 |
| CC1(C)CNc2cc(NC(=O)c3cccnc3NCc3ccncc3)ccc21 | 0.263 | 317 | 373 | 379 |
| CCN1C(=O)\C(=C/C2=CN=C(NCCC3CCN(C)CC3)N=C12)C4=CC=C(C=C4Cl)C5=CN=CC(=N5)C | 2.63 | 624 |  | 645 |
| OCc1ccc(-c2ccc(-c3ccc(CO)s3)o2)s1 | 37.2 | 532 |  | 507 |
| c1cc(CN2CCCNCCNCCCNCC2)ccc1CN1CCCNCCNCCCNCC1 | 0.0934 | 337 | 294 | 336 |
| CONC(=O)c1ccccc1Nc1cc(Nc2cc(C)nn2C(C)C)ncc1Cl | 16.6 | 459 |  | 455 |
| Cn1cc(/C=C2\C(=O)Nc3cccnc32)c2ccccc21 | 0.105 | 320 | 373 | 349 |
| CC(C)N(CCC(=O)c1ccc2ccccc2c1)Cc1ccccc1 | 20.9 | 609 | 603 | 557 |
| O=C(Nc1ccc([S+](=O)([O-])N2CCOCC2)cc1)c1cc(Cl)ccc1N[S+](=O)([O-])c1ccc(Cl)s1 | 18.6 | 530 |  | 481 |
| CC(C)(C)C(=O)Oc1ccc([S+](=O)([O-])Nc2ccccc2C(=O)NCC(=O)O)cc1 | 0.105 | 313 | 348 | 318 |

| SMILES | AC50 viability (CU-ACC2 [1]) [µM] | area under concentration-response curve (CU-ACC2 [2]) | area under concentration-response curve (NCI-H295R) | area under concentration-response curve (CU-ACC1) |
| --- | --- | --- | --- | --- |
| CCOc1cc(N2CCC(O)CC2)ccc1Nc1ncc2c(n1)N(C)c1ccccc1C(=O)N2C | 20.9 | 525 | 479 | 450 |
| C/C(=N\NC(=S)N1CCC1)c1ccccn1 | 0.417 | 453 | 396 | 292 |
| COc1ccc(-c2cc3nccn3c(Nc3ncccc3C(N)=O)n2)cc1OC | 6.61 | 415 | 427 | 436 |
| O=C(Nc1ccc2[nH]nc(-c3ccncc3)c2c1)[C@@H]1CCN(CC(=O)N2CCN(c3ccc(-c4ncccn4)cc3)CC2)C1 | 11.8 | 476 | 482 | 444 |
| Cc1ccc(Nc2ncc3c(n2)N(C)C(=O)N(c2cc(NC(=O)c4cccc(C(F)(F)F)c4)ccc2C)C3)cn1 | 5.25 | 504 | 532 | 501 |
| CN[C@@H](C)C(=O)N[C@H](C(=O)N1CCC[C@H]1C(=O)Nc1snnc1-c1ccccc1)C1CCCCC1 | 1.66 | 405 | 401 | 413 |
| Cc1cnc(C(=O)NCCc2ccc([S+](=O)([O-])NC(=O)NC3CCCCC3)cc2)cn1 | 33.2 | 404 |  | 355 |
| [2H]C([2H])([2H])C(O)([C@@H](C)/C=C/[C@@H](C)[C@H]1CC[C@H]2/C(=C/C=C3C[C@@H](O)C[C@H](O)C3)CCC[C@]12C)C([2H])([2H])[2H] | 0.235 | 309 |  | 347 |
| CC1(C)C(N(O)C(=O)Nc2ccc(Cl)cc2)N(c2ccc(Cl)cc2)C(=O)N1CC(=O)N/N=C/C=C/c1ccc([N+](=O)[O-])o1 (stereo unspecified) | 23.5 | 561 |  | 511 |
| C=CC[C@@H]1/C=C(\C)C[C@H](C)C[C@H](OC)[C@H]2O[C@@](O)(C(=O)C(=O)N3CCCC[C@H]3C(=O)O[C@H](/C(C)=C/[C@@H]3CC[C@@H](O)[C@H](OC)C3)[C@H](C)[C@@H](O)CC1=O)[C@H](C)C[C@@H]2OC | 18.6 | 390 |  | 383 |
| COc1c(C)cnc(Cn2cnc3c(Cl)nc(N)nc32)c1C | 0.661 | 378 |  | 361 |
| C[C@@H](N)c1ccc(C(=O)Nc2ccnc3[nH]ccc23)cc1 | 2.63 | 297 |  | 349 |
| Cc1cccc(-c2[nH]c(C(C)(C)C)nc2-c2ccc3nccnc3c2)n1 | 0.263 | 331 |  | 293 |
| C=CC(=O)Nc1cccc(Nc2nc(Nc3ccc(OCCOC)cc3)ncc2F)c1 | 20.9 | 597 | 545 |  |
| Fc1ccc(-c2nc(-c3ccccc3F)[nH]c2-c2ccncc2)cc1 | 33.2 | 399 |  | 336 |
| CN1CCN(CCOc2cc(OC3CCOCC3)c3c(Nc4c(Cl)ccc5c4OCO5)ncnc3c2)CC1 | 23.5 | 548 |  | 547 |
| CC(C)[C@H](CO)Nc1nc(Nc2cccc(Cl)c2)c2ncn(C(C)C)c2n1 | 29.5 | 591 |  | 551 |
| CNCc1ccc(-c2[nH]c3cc(F)cc4c3c2CCNC4=O)cc1 | 26.3 | 495 |  | 416 |
| Cc1[nH]c(/C=C2\C(=O)Nc3ccc(F)cc32)c(C)c1C(=O)NCCN1CCCC1 | 14.4 | 525 |  | 522 |
| C\C1=C(\[C@@H](OC2=C1C=CC(=C2)O)C3=CC=C(OCCN4CCCCC4)C=C3)C5=CC=C(O)C=C5 | 0.295 | 333 |  | 296 |
| COc1cc(Nc2cnc(C#N)c(O[C@H](C)CN(C)C)n2)ncc1-c1cnn(C)c1 | 10.5 | 399 |  | 312 |
| CC(C)n1cnc2c(NCCc3ccc(O)cc3)nc(-c3csc4ccccc34)nc21 | 9.34 | 325 |  | 335 |
| CNC(=O)c1cccc2cc(Oc3ccnc4cc(OCC5(N)CC5)c(OC)cc34)ccc12 | 1.66 | 305 |  | 356 |
| C[C@H](NC(=O)[C@@H]1C[C@@H](O)CN1C(=O)[C@@H](NC(=O)COCCCOCCNC(=O)C[C@@H]2\N=C(C3=CC=C(Cl)C=C3)/C4=C(SC(=C4C)C)[N]5C(=NN=C25)C)C(C)(C)C)C6=CC=C(C=C6)C7=C(C)N=CS7 | 8.33 | 478 |  | 474 |
| CCN(CC)CCOc1ccc(/C(=C(\Cl)c2ccccc2)c2ccccc2)cc1 | 10.5 | 203 | 131 |  |
| Cc1c(NC(=O)OC[C@@H]2COCCN2)cn2ncnc(Nc3ccc4c(cnn4Cc4cccc(F)c4)c3)c12 | 18.6 | 544 |  | 393 |
